Reference: EP0302824A2 (priority 1987, dated 1989)

Tested on: D. balteata
Test: Soil activity of seed applied furathiocarb on maize cultivars Centaurus and Arjuna
Format: in vivo, Diabrotica balteata
Parameters: key to Scores of damage caused by D. balteata: 0-6 crown-root damage scale: 0 = no damage, 6 = <3 roots connect stem to soil
Excerpt: Plastic pots, 1 litre volume, are filled with soil to within 3 cm of the top. Three soil types are used: • 1. A natural soil from Stein, Canton Aargau, Switzerland. This is heat sterilized and sieved to give an agglomerate size of less than 5 mm. Its composition is clay 20.7%, silt 13.7%, sand 65.6%, organic matter 3.2%, pH 5.6. Moisture is adjusted to 20% of dry weight. • 2. An artificial mixture of fine quartz sand and milled neutralized peat (2% of total by dry weight). The moisture is adjusted to 10% of dry weight. • 3. An artificial mixture similar to (2) except that the neutralized peat comprised 6% by dry weight. Moisture is adjusted to 20% for the mixture.
One seed is sown 3 cm deep in the center of each of 10 pots per treatment. The pots are placed in a growth chamber with a relative humidity of 70% in a 12 hour daylength, light intensity 30,000 lux, using 26°C day and 22°C night temperatures. Soil moisture is maintained at the original level by daily irrigation with a commercially available nutrient solution.
After two or three weeks of plant growth, 40 larvae of the banded cucumber beetle (Diabrotica balteata) are scattered on the surface of each pot. This insect species is commonly used as a laboratory model for the corn rootworm (Diabrotica spp.) which is a common soil insect pest of maize (Zea mays) in the USA. For this test, second instar larvae are selected. They are reared on maize seedlings at 23°C for 13 days from egglaying. The surface of the soil in the pots is disturbed and 40 larvae are scattered on the surface. The disturbance encourages burrowing of the larvae.
The insects are allowed to feed on the plant roots for one week before the contents of each pot are separated into three components (roots, insects and soil) using a wet sieving technique. Living larvae are then counted and damage assessed on crown roots growing from the stem-base using the 0-6 scale shown below: • 0 = no damage • 1 = slight feeding damage, no roots eaten through • 2 = more than 3 places with feed damage, no roots eaten through • 3 = 1-2 roots eaten through • 4 = more than 2, but less than half the roots eaten • 5 = more than half the roots eaten, but at least 3 still connect stem and soil • 6 = less than 3 roots connect stem to soil
This example includes the results of test series using 2 maize cultivars Centaurus and Arjuna. The basic test procedure is described in detail under example 20 therefore only differences are mentioned here.
Seeds of the hybrid Centaurus are treated with 4 or 10 g/kg furathiocarb in either PVAc/PVAl or association polymer systems. The cultivar Arjuna is treated with 2.5 or 10 g/kg seed in the same polymer systems. The seeds are sown in two soil types, either a natural soil from Stein, Canton Aargau, Switzerland or in a 98% sand 2% peat mixture. Both these soil types are described previously.

[1] = cultivar Arjuna, 98% Sand, 3 w, Association Polymer, dosage 2.5 g
[2] = cultivar Arjuna, 98% Sand, 3 w, Association Polymer, dosage 10 g
[3] = cultivar Arjuna, 98% Sand, 3 w, PVAc/PVAl, dosage 2.5 g
[4] = cultivar Arjuna, 98% Sand, 3 w, PVAc/PVAl, dosage 10 g
[5] = cultivar Arjuna, 98% Sand, 4 w, Association Polymer, dosage 2.5 g
[6] = cultivar Arjuna, 98% Sand, 4 w, Association Polymer, dosage 10 g
[7] = cultivar Arjuna, 98% Sand, 4 w, PVAc/PVAl, dosage 2.5 g
[8] = cultivar Arjuna, 98% Sand, 4 w, PVAc/PVAl, dosage 10 g
[9] = cultivar Arjuna, Stein Earth, 3 w, Association Polymer, dosage 2.5 g
[10] = cultivar Arjuna, Stein Earth, 3 w, Association Polymer, dosage 10 g
[11] = cultivar Arjuna, Stein Earth, 3 w, PVAc/PVAl, dosage 2.5 g
[12] = cultivar Arjuna, Stein Earth, 3 w, PVAc/PVAl, dosage 10 g
[13] = cultivar Arjuna, Stein Earth, 4 w, Association Polymer, dosage 2.5 g
[14] = cultivar Arjuna, Stein Earth, 4 w, Association Polymer, dosage 10 g
[15] = cultivar Arjuna, Stein Earth, 4 w, PVAc/PVAl, dosage 2.5 g
[16] = cultivar Arjuna, Stein Earth, 4 w, PVAc/PVAl, dosage 10 g
[17] = hybrid Centaurus, 98% Sand, 3 w, Association Polymer, dosage 4 g
[18] = hybrid Centaurus, 98% Sand, 3 w, Association Polymer, dosage 10 g
[19] = hybrid Centaurus, 98% Sand, 3 w, PVAc/PVAl, dosage 4 g
[20] = hybrid Centaurus, 98% Sand, 3 w, PVAc/PVAl, dosage 10 g
[21] = hybrid Centaurus, 98% Sand, 4 w, Association Polymer, dosage 4 g
[22] = hybrid Centaurus, 98% Sand, 4 w, Association Polymer, dosage 10 g
[23] = hybrid Centaurus, 98% Sand, 4 w, PVAc/PVAl, dosage 4 g
[24] = hybrid Centaurus, 98% Sand, 4 w, PVAc/PVAl, dosage 10 g
[25] = hybrid Centaurus, Stein Earth, 3 w, Association Polymer, dosage 4 g
[26] = hybrid Centaurus, Stein Earth, 3 w, Association Polymer, dosage 10 g
[27] = hybrid Centaurus, Stein Earth, 3 w, PVAc/PVAl, dosage 4 g
[28] = hybrid Centaurus, Stein Earth, 3 w, PVAc/PVAl, dosage 10 g
[29] = hybrid Centaurus, Stein Earth, 4 w, Association Polymer, dosage 4 g
[30] = hybrid Centaurus, Stein Earth, 4 w, Association Polymer, dosage 10 g
[31] = hybrid Centaurus, Stein Earth, 4 w, PVAc/PVAl, dosage 4 g
[32] = hybrid Centaurus, Stein Earth, 4 w, PVAc/PVAl, dosage 10 g

CCCCOC(=O)N(C)SN(C)C(=O)Oc1cccc2c1OC(C)(C)C2 [furathiocarb]
Percent D. balteata survival [1]: 5% | Scores of damage caused by D. balteata [1]: 1.4 | Percent D. balteata survival [2]: 8% | Scores of damage caused by D. balteata [2]: 1.2 | Percent D. balteata survival [3]: 20% | Scores of damage caused by D. balteata [3]: 3.0 | Percent D. balteata survival [4]: 20% | Scores of damage caused by D. balteata [4]: 2.8 | Percent D. balteata survival [5]: 17% | Scores of damage caused by D. balteata [5]: 2.8 | Percent D. balteata survival [6]: 0% | Scores of damage caused by D. balteata [6]: 0.6 | Percent D. balteata survival [7]: 39% | Scores of damage caused by D. balteata [7]: 3.4 | Percent D. balteata survival [8]: 21% | Scores of damage caused by D. balteata [8]: 3.2 | Percent D. balteata survival [9]: 1% | Scores of damage caused by D. balteata [9]: 3.6 | Percent D. balteata survival [10]: 1% | Scores of damage caused by D. balteata [10]: 1.8 | Percent D. balteata survival [11]: 5% | Scores of damage caused by D. balteata [11]: 3.2 | Percent D. balteata survival [12]: 3% | Scores of damage caused by D. balteata [12]: 3.0 | Percent D. balteata survival [13]: 17% | Scores of damage caused by D. balteata [13]: 3.8 | Percent D. balteata survival [14]: 0% | Scores of damage caused by D. balteata [14]: 2.3 | Percent D. balteata survival [15]: 11% | Scores of damage caused by D. balteata [15]: 3.0 | Percent D. balteata survival [16]: 14% | Scores of damage caused by D. balteata [16]: 3.4 | Percent D. balteata survival [17]: 2% | Scores of damage caused by D. balteata [17]: 1.4 | Percent D. balteata survival [18]: 4% | Scores of damage caused by D. balteata [18]: 0 | Percent D. balteata survival [19]: 17% | Scores of damage caused by D. balteata [19]: 3.0 | Percent D. balteata survival [20]: 8% | Scores of damage caused by D. balteata [20]: 1.8 | Percent D. balteata survival [21]: 8% | Scores of damage caused by D. balteata [21]: 1.6 | Percent D. balteata survival [22]: 8% | Scores of damage caused by D. balteata [22]: 1.2 | Percent D. balteata survival [23]: 36% | Scores of damage caused by D. balteata [23]: 3.4 | Percent D. balteata survival [24]: 30% | Scores of damage caused by D. balteata [24]: 3.6 | Percent D. balteata survival [25]: 0% | Scores of damage caused by D. balteata [25]: 0.8 | Percent D. balteata survival [26]: 1% | Scores of damage caused by D. balteata [26]: 1.0 | Percent D. balteata survival [27]: 1% | Scores of damage caused by D. balteata [27]: 2.1 | Percent D. balteata survival [28]: 1% | Scores of damage caused by D. balteata [28]: 1.0 | Percent D. balteata survival [29]: 4% | Scores of damage caused by D. balteata [29]: 2.1 | Percent D. balteata survival [30]: 7% | Scores of damage caused by D. balteata [30]: 1.9 | Percent D. balteata survival [31]: 4% | Scores of damage caused by D. balteata [31]: 1.8 | Percent D. balteata survival [32]: 10% | Scores of damage caused by D. balteata [32]: 2.2
